Experimental data from ChEMBL document CHEMBL5584269 (Bioorg Med Chem Lett, 2024).
pEC50: −log10 of the molar value. Activity calls are given as the source filed them. The calls are words filed in the database; no cut-off is given here.

Assays:
[1] = test system: Leishmania donovani; experiment: Antileishmanial activity against promastigote form of Leishmania donovani assessed as reduction in parasite growth incubated for 72 hrs by alamar blue dye based fluorescence analysis; format: functional, organism-based
[2] = test system: Leishmania major; experiment: Antileishmanial activity against promastigote form of Leishmania major Freidlin assessed as reduction in parasite growth incubated for 72 hrs by alamar blue dye based fluorescence analysis; format: functional, organism-based
[3] = test system: HeLa; experiment: Cytotoxicity against human HeLa cells incubated for 72 hrs by alamar blue cell viability assay; format: functional, cell-based
[4] = test system: Trypanosoma cruzi; experiment: Antitrypanosomal activity against epimastigote form of Trypanosoma cruzi CL Brener assessed as reduction in parasite growth incubated for 72 hrs by alamar blue dye based fluorescence analysis; format: functional, organism-based
[5] = test system: Trypanosoma brucei; experiment: Antitrypanosomal activity against bloodstream trypomastigote form of Trypanosoma brucei Lister 427 assessed as reduction in parasite growth incubated for 72 hrs by alamar blue dye based fluorescence analysis; format: functional, organism-based; conditions: Lister 427, 72 h
[6] = test system: Leishmania donovani; experiment: Antileishmanial activity against Leishmania donovani amastigotes infected in human THP-1 cells assessed as reduction in parasite growth incubated for 72 hrs by alamar blue dye based fluorescence analysis; format: functional, organism-based; conditions: THP-1, 72 h
[7] = Selectivity ratio of EC50 for antileishmanial activity against Leishmania donovani amastigotes infected in human THP-1 cells to EC50 for cytotoxicity against human THP-1 cells; format: functional
[8] = test system: Trypanosoma brucei; experiment: Induction of morphological change in bloodstream trypomastigote form of Trypanosoma brucei Lister 427 assessed as appearance of swollen cells at EC10 incubated for 48 hrs by DAPI staining based immunofluorescence analysis; format: functional, organism-based
[9] = test system: Leishmania donovani; experiment: Antileishmanial activity against Leishmania donovani axenic amastigotes assessed as reduction in parasite growth incubated for 72 hrs by alamar blue dye based fluorescence analysis; format: functional, organism-based
[10] = test system: Leishmania major; experiment: Induction of morphological change in promastigote form of Leishmania major Freidlin assessed as increase in intracellular vesicles at EC10 incubated for 48 hrs by DAPI staining based immunofluorescence analysis; format: functional, organism-based
[11] = test system: THP-1; experiment: Cytotoxicity against human THP-1 cells incubated for 72 hrs by alamar blue cell viability assay; format: functional, cell-based; conditions: THP-1, 72 h
[12] = test system: Trypanosoma brucei; experiment: Induction of morphological change in bloodstream trypomastigote form of Trypanosoma brucei Lister 427 assessed as reduction in cytokinesis at EC10 incubated for 48 hrs by DAPI staining based immunofluorescence analysis; format: functional, organism-based
[13] = test system: Leishmania major; experiment: Antileishmanial activity against promastigote form of Leishmania major Freidlin assessed as morphological change at EC10 incubated for 48 hrs by DAPI staining based immunofluorescence analysis; format: functional, organism-based
[14] = test system: Trypanosoma cruzi; experiment: Antitrypanosomal activity against epimastigote form of Trypanosoma cruzi CL Brener assessed as fold change in reduction of parasite growth incubated for 72 hrs by alamar blue dye based fluorescence analysis relative to miltefosine; format: functional

| SMILES | pEC50 [4] | pEC50 [5] | pEC50 [1] | pEC50 [2] | pEC50 [3] | pEC50 [6] | Ratio EC50 [7] | Activity [8] | pEC50 [9] | Activity [10] | pEC50 [11] | Activity [12] | Activity [13] | fold change (FC) [14] |
| --- | --- | --- | --- | --- | --- | --- | --- | --- | --- | --- | --- | --- | --- | --- |
| COC(=O)[C@@H]1CCCN1C(=O)[C@H](C)CSCc1ccccc1 | 4.52 | 4.48 | 5.40 | 5.06 | < 3.60 | – | – | – | – | – | – | – | – | – |
| N=C(N)c1ccc(OCCCCCOc2ccc(C(=N)N)cc2)cc1 [PENTAMIDINE] | – | 8.70 | – | – | – | – | – | – | – | – | – | – | – | – |
| COC(=O)[C@@H]1CCCN1C(=O)Cc1ccccc1 | 4.36 | 4.42 | 4.93 | 4.91 | < 3.60 | – | – | – | – | – | – | – | – | – |
| COC(=O)[C@H]1CCCN1C(=O)C(C)(C)C | 4.13 | 4.01 | 4.46 | 4.40 | < 3.60 | – | – | – | – | – | – | – | – | – |
| COC(=O)[C@@H]1CCCN1C(=O)C(C)(C)C | 4.18 | 4.23 | 4.77 | 4.84 | < 3.60 | – | – | – | – | – | – | – | – | – |
| COC(=O)[C@@H]1CCCN1C(=O)CCSCc1ccccc1 | 5.29 | 5.16 | 5.93 | 5.91 | < 3.60 | 5.30 | 50 | Active | 6.04 | – | < 3.60 | Active | inactive | 3 |
| COC(=O)[C@H]1CCCN1C(=O)Cc1ccccc1 | < 3.70 | < 3.70 | 4.02 | 4.00 | < 3.60 | – | – | – | – | – | – | – | – | – |
| COC(=O)[C@@H]1CCCN1C(=O)[C@H](C)CS | 4.64 | 4.82 | 5.55 | 5.14 | < 3.60 | – | – | – | – | – | – | – | – | – |
| COC(=O)[C@H]1CCCN1C(=O)C(C)C | 4.27 | 5.12 | 5.45 | 5.48 | < 3.60 | – | – | – | – | – | – | – | – | – |
| COC(=O)[C@@H]1CCCN1C(=O)C(C)C | 4.27 | 5.01 | 5.15 | 5.35 | < 3.60 | – | – | – | – | – | – | – | – | – |
| C[C@H](CSCc1ccccc1)C(=O)N1CCC[C@H]1C(=O)O | 4.40 | 4.41 | 5.00 | 4.77 | < 3.60 | – | – | – | – | – | – | – | – | – |
| CCCCCCCCCCCCCCCCOP(=O)([O-])OCC[N+](C)(C)C [MILTEFOSINE] | – | – | 5.24 | 5.27 | – | 5.22 | – | – | 5.57 | – | < 3.60 | – | – | – |
| CC1CS(=O)(=O)CCN1/N=C/c1ccc([N+](=O)[O-])o1 (stereo not drawn) [NIFURTIMOX] | 5.51 | – | – | – | – | – | – | – | – | – | – | – | – | – |
| COC(=O)[C@H]1CCCN1C(=O)CCSCc1ccccc1 | 4.22 | 5.39 | 4.47 | 4.45 | < 3.60 | – | – | – | – | – | – | – | – | – |

Continued, in another order:

| pEC50 [4] | pEC50 [5] | SMILES | pEC50 [1] | pEC50 [2] | pEC50 [3] | pEC50 [6] | Ratio EC50 [7] | Activity [8] | pEC50 [9] | Activity [10] | pEC50 [11] | Activity [12] | Activity [13] | fold change (FC) [14] |
| --- | --- | --- | --- | --- | --- | --- | --- | --- | --- | --- | --- | --- | --- | --- |
| 4.81 | 4.88 | COC(=O)[C@@H]1CCCN1C(=O)[C@H](C)CSC | 5.69 | 5.28 | < 3.60 | – | – | – | – | – | – | – | – | – |
| 4.15 | 4.21 | CC(C)(C)C(=O)N1CCC[C@H]1C(=O)O | 4.70 | 4.69 | < 3.60 | – | – | – | – | – | – | – | – | – |
| 4.85 | 5.71 | COC(=O)[C@@H]1CCCN1C(=O)CC(C)C | 5.79 | 5.71 | < 3.60 | 5.65 | 50 | Active | 6.01 | Active | < 3.60 | Active | – | – |
| 4.15 | 5.23 | O=C(O)[C@H]1CCCN1C(=O)CCSCc1ccccc1 | 4.40 | 4.40 | < 3.60 | – | – | – | – | – | – | – | – | – |
| 4.83 | 4.69 | COC(=O)[C@@H]1CCCN1C(=O)CCS | 5.24 | 5.15 | < 3.60 | – | – | – | – | – | – | – | – | – |
| 4.10 | 3.97 | CC(C)(C)C(=O)N1CCC[C@@H]1C(=O)O | 4.39 | 4.32 | < 3.60 | – | – | – | – | – | – | – | – | – |
| 4.43 | 5.84 | COC(=O)[C@H]1CCCN1C(=O)CC(C)C | 5.96 | 5.69 | < 3.60 | 5.69 | 50 | – | 6.06 | – | < 3.60 | – | – | – |
| 4.71 | 4.91 | COC(=O)[C@@H]1CCCN1C(=O)CCSC | 5.69 | 5.61 | < 3.60 | 5.33 | 50 | – | 5.73 | – | < 3.60 | – | – | – |
| 4.33 | 4.39 | O=C(O)[C@@H]1CCCN1C(=O)Cc1ccccc1 | 4.86 | 4.84 | < 3.60 | – | – | – | – | – | – | – | – | – |
| 4.76 | 5.61 | CC(C)CC(=O)N1CCC[C@H]1C(=O)O | 5.69 | 5.65 | < 3.60 | – | – | – | – | – | – | – | – | – |
| < 3.70 | < 3.70 | O=C(O)[C@H]1CCCN1C(=O)Cc1ccccc1 | 4.01 | 3.98 | < 3.60 | – | – | – | – | – | – | – | – | – |
| 4.40 | 5.72 | CC(C)CC(=O)N1CCC[C@@H]1C(=O)O | 5.85 | 5.56 | < 3.60 | – | – | – | – | – | – | – | – | – |
| 4.47 | 5.23 | COC(=O)[C@H]1CCCN1C(=O)CCSC | 5.57 | 5.51 | < 3.60 | – | – | – | – | – | – | – | – | – |
| – | 4.64 | C[C@H](CS)C(=O)N1CCC[C@H]1C(=O)O [CAPTOPRIL] | 5.03 | 4.91 | 3.89 | – | – | – | – | – | – | – | – | – |
| 4.74 | 4.78 | O=C(O)[C@H]1CCCN1C(=O)CCS | 5.34 | 5.22 | < 3.60 | – | – | – | – | – | – | – | – | – |
| 4.52 | 4.58 | CSC[C@@H](C)C(=O)N1CCC[C@H]1C(=O)O | 5.06 | 4.94 | < 3.60 | 5.38 | 50 | – | 5.67 | – | < 3.60 | – | – | – |
| 4.41 | 5.01 | CSCCC(=O)N1CCC[C@@H]1C(=O)O | 5.37 | 5.32 | < 3.60 | – | – | – | – | – | – | – | – | – |
| 4.22 | 5.00 | CC(C)C(=O)N1CCC[C@@H]1C(=O)O | 5.32 | 5.39 | < 3.60 | – | – | – | – | – | – | – | – | – |
| 4.68 | 4.55 | O=C(O)[C@@H]1CCCN1C(=O)CCS | 5.15 | 5.01 | < 3.60 | – | – | – | – | – | – | – | – | – |
| 4.21 | 4.91 | CC(C)C(=O)N1CCC[C@H]1C(=O)O | 5.09 | 5.26 | < 3.60 | – | – | – | – | – | – | – | – | – |
| 4.45 | 4.55 | CSCCC(=O)N1CCC[C@H]1C(=O)O | 4.87 | 4.77 | < 3.60 | – | – | – | – | – | – | – | – | – |
| 4.70 | 4.83 | O=C(O)[C@@H]1CCCN1C(=O)CCSCc1ccccc1 | 5.59 | 5.50 | 3.92 | – | – | – | – | – | – | – | – | – |
